This assay deals with tumor cell. As to the kind of experiment: Cytotoxicity assay (MTS). Particulars: 72 h; incubation for three days; read-out: IC50, tumor cell growth inhibition (MTS). The format is cell-based. As for the experimental part:
The efficacy of a test compound in inhibiting tumor cell growth was analyzed using a MTS assay. The MTS assay is a calorimetric method for the determination of viable cells in proliferation by using a tetrazolium compound (3-(4,5-dimethylthiazol-2-yl)-5-(3-[…])-2-(4-sulfophenyl)-2H-tetrazolium, inner salt; MTS) and an electron-coupling agent (phenazine methosulfate; PMS). The MTS reagent is converted by dehydrogenase enzymes in metabolically active cells into a formazan that is soluble in a tissue culture medium.
In this assay, tumor cell suspensions (30 μl/well) were seeded into 384-well flat-bottomed tissue culture plates at an appropriate density overnight. A fresh medium (3 μl/well) containing varying concentrations of a test compound or vehicle was added to the culture followed by incubation for three days. At the end of the incubation, all plates were processed simultaneously as follows: The culture medium was aspirated, a MTS cell proliferation assay (Promega) solution (30 μl/well) was added, and the plates were incubated at 37° C. for about 2 hours. Absorbance (a parameter proportional to the cell mass) was measured at 490 nm using a Multiskan (Thermo Electron Corporation, Waltham, Mass.). Inhibition effects were expressed as corrected T/C values for each test compound according to the following equation:
T/C=(T−Blank)/(C−Blank)×100(%),
where T is the mean absorbance of the treated cells, C is the mean absorbance of the controls, and Blank is the mean absorbance of the cell free well.

pIC50: −log10 of the molar value.

One may read the pIC50 as −log10 of the IC50, conventionally taken in molar units. Consider `Cc1ccc(C(=O)N(CCN)[C@@H](c2nc3c(oc4ccc(F)cc43)c(=O)n2Cc2ccsc2)C(C)C)cc1F` [Compound 195], for which the pIC50 is greater than 4.52.
Take `Cc1ccc(C(=O)N(CCN)[C@@H](c2nc3c(oc4ccc(F)cc43)c(=O)n2Cc2cccs2)C2CC2)cc1` [Compound 226]: the pIC50 is greater than 4.52.
For `Cc1ccc(C(=O)N(CCCN)C(c2nc3nc4ccccc4nc3c(=O)n2Cc2ccccc2)C(C)C)cc1` (stereo not drawn) [Compound 10], the pIC50 is greater than 4.52.
On to `Cc1ccc(C(=O)N(CCN)C(c2nc3c(oc4ccc(Cl)cc43)c(=O)n2Cc2ccsc2)C(C)C)cc1` (stereo not drawn) [Compound 77], for which the pIC50 was greater than 4.52.
As for `Cc1ccc(C(=O)N(CCN)C(c2nc3c(oc4ccc(F)cc43)c(=O)n2Cc2ccc(C#N)o2)C(C)C)cc1` (stereo not drawn) [Compound 111], the pIC50 was greater than 4.52.
With `Cc1ccc(C(=O)N(CCCN)C(c2nc3c(oc4ccccc43)c(=O)n2Cc2ccc(Br)s2)C(C)C)cc1` (stereo not drawn) [Compound 14], the pIC50 was greater than 4.52.
With `Cc1ccc(C(=O)N(CCCN)C(c2nc3c(sc4ncccc43)c(=O)n2Cc2ccccc2)C(C)C)cc1` (stereo not drawn) [Compound 156], the pIC50 is greater than 4.52.
For `Cc1ccc(C(=O)N(CCN)C(c2nc3c(oc4cccc(F)c43)c(=O)n2Cc2ccccc2)C(C)C)cc1` (stereo not drawn) [Compound 60] the value was greater than 4.52; for `Cc1ccc(C(=O)N(CCN)C(c2nc3c(oc4ccc(Cl)cc43)c(=O)n2Cc2cc(C)cs2)C(C)C)cc1` (stereo not drawn) [Compound 94], greater than 4.52; for `Cc1ccc(C(=O)N(CCCN)C(c2nc3c(sc4ccccc43)c(=O)n2Cc2ccc(Br)s2)C(C)C)cc1` (stereo not drawn) [Compound 144], greater than 4.52.
In the case of `Cc1csc(Cn2c([C@@H](C(C)C)N(CCN)C(=O)c3ccc(C)c(F)c3)nc3c(oc4ccc(F)cc43)c2=O)c1` [Compound 176], the pIC50 is greater than 4.52.
For `Cc1ccc(C(=O)N(CCN)C(c2nc3c(oc4ccc(F)cc43)c(=O)n2Cc2ccc(Cl)o2)C(C)C)cc1` (stereo not drawn) [Compound 90] the value was greater than 4.52; for `Cc1ccc(C(=O)N(CCN)[C@@H](c2nc3c(oc4ccc(F)cc43)c(=O)n2Cc2cccc(F)c2)C(C)C)cc1F` [Compound 188], greater than 4.52.
For the compound `CC(C)C(c1nc2c(sc3ccccc32)c(=O)n1Cc1ccc(Br)s1)N(CCCN)C(=O)c1ccc(Br)cc1` (stereo not drawn) [Compound 145], the pIC50 is greater than 4.52.
For `Cc1ccc(C(=O)N(CCN)C(c2nc3c(oc4ccc(F)cc43)c(=O)n2Cc2cccc(C)c2)C(C)C)cc1` (stereo not drawn) [Compound 104] the value was greater than 4.52.
For `CC(C)C(c1nc2c(sc3ccccc32)c(=O)n1Cc1ccc(Cl)s1)N(CCCN)C(=O)c1ccc(Cl)cc1` (stereo not drawn) [Compound 143] the value was greater than 4.52.
Regarding `CC(C)C(c1nc2c(sc3ccc(F)cc32)c(=O)n1Cc1ccccc1)N(CCCN)C(=O)c1ccc(Br)cc1` (stereo not drawn) [Compound 140], the pIC50 was greater than 4.52.
For `Cc1ccc(C(=O)N(CCN)[C@@H](c2nc3c(oc4ccc(F)cc43)c(=O)n2Cc2cc(C)cs2)C2CC2)cc1` [Compound 222] the value was greater than 4.52.
As for `CCCC(c1nc2c(oc3ccccc32)c(=O)n1Cc1ccccc1)N(CCCN)C(=O)c1ccc(C)cc1` (stereo not drawn) [Compound 50], the pIC50 is greater than 4.52.
For `Cc1ccc(C(=O)N(CCCN)C(c2nc3c(oc4ccc(F)cc43)c(=O)n2Cc2ccc(Br)o2)C(C)C)cc1` (stereo not drawn) [Compound 82] the value was greater than 4.52; for `Cc1ccc(C(=O)N(CCCN)C(c2nc3c([nH]c4ccccc43)c(=O)n2Cc2ccccc2)C(C)C)cc1` (stereo not drawn) [Compound 158], greater than 4.52; for `Cc1ccc(C(=O)N(CCN)[C@@H](c2nc3c(oc4ccc(F)cc43)c(=O)n2Cc2ccc(I)s2)C(C)C)cc1` [Compound 219], greater than 4.52.
Consider `Cc1ccc(C(=O)N(CCCN)C(c2nc3c(Br)c4ccccc4cc3c(=O)n2Cc2ccc(Cl)s2)C(C)C)cc1` (stereo not drawn) [Compound 6], for which the pIC50 was greater than 4.52.
Next, `CC[C@@H](C)[C@H](c1nc2c(oc3ccc(F)cc32)c(=O)n1Cc1ccc(Br)o1)N(CCN)C(=O)c1ccc(C)cc1` [Compound 220]: greater than 4.52; `Cc1ccc(C(=O)N(CCN)C(c2nc3c(oc4ccc(C)cc43)c(=O)n2Cc2ccccc2)C(C)C)cc1` (stereo not drawn) [Compound 39]: greater than 4.52; `Cc1ccc(C(=O)N(CCC2(N)CCC2)C(c2nc3n(c(=O)c2Cc2ccccc2)Cc2ccccc2-3)C(C)C)cc1` (stereo not drawn) [Compound 153]: greater than 4.52.
Turning to `CCC(c1nn2c(cc3ccccc32)c(=O)n1Cc1ccccc1)N(CCCN)C(=O)c1ccc(C)cc1` (stereo not drawn) [Compound 159], the pIC50 is greater than 4.52.
For `Cc1ccc(C(=O)N(CCN)C(c2nc3c(oc4ccccc43)c(=O)n2Cc2ccccc2)C(C)C)cc1` (stereo not drawn) [Compound 25] the value was greater than 4.52; for `Cc1ccc(C(=O)N(CCN)C(c2nc3c(oc4ccc(F)cc43)c(=O)n2Cc2ccco2)C(C)C)cc1` (stereo not drawn) [Compound 127], greater than 4.52; for `CC(C)C(c1nc2n(c(=O)c1Cc1ccccc1)Cc1ccccc1-2)N(CCCN)C(=O)c1ccc(Cl)cc1` (stereo not drawn) [Compound 151], greater than 4.52.
With `Cc1ccc(C(=O)N(CCCN)C(c2nc3c(oc4ccc(Cl)cc43)c(=O)n2Cc2ccc(Cl)s2)C(C)C)cc1` (stereo not drawn) [Compound 45], the pIC50 is greater than 4.52.
On to `CCC(c1nc2c(oc3ccc(Cl)cc32)c(=O)n1Cc1ccccc1)N(CCCN)C(=O)c1ccc(C)cc1` (stereo not drawn) [Compound 31], for which the pIC50 was greater than 4.52.
For `COC(=O)c1ccc(Cn2c(C(C(C)C)N(CCN)C(=O)c3ccc(C)cc3)nc3c(oc4ccc(F)cc43)c2=O)o1` (stereo not drawn) [Compound 102] the value was greater than 4.52; for `Cc1ccc(C(=O)N(CCCN)C(c2nc3c(oc4ccc(F)cc43)c(=O)n2Cc2ccc(C#N)s2)C(C)C)cc1` (stereo not drawn) [Compound 72], greater than 4.52; for `Cc1ccc(C(=O)N(CCCN)C(c2nc3c(oc4cc(Cl)ccc43)c(=O)n2Cc2ccccc2)C(C)C)cc1` (stereo not drawn) [Compound 108], greater than 4.52.
For `Cc1ccc(C(=O)N(CCN)C(c2nc3c(oc4ccc(F)cc43)c(=O)n2Cc2cccc(Br)c2)C(C)C)cc1` (stereo not drawn) [Compound 124], the pIC50 was greater than 4.52.
Consider `Cc1ccc(C(=O)N(CCCN)C(c2nc3c(oc4ccc(Br)cc43)c(=O)n2Cc2ccccc2)C(C)C)cc1` (stereo not drawn) [Compound 38], for which the pIC50 was greater than 4.52.
Next, `Cc1ccc(C(=O)N(CCN)C(c2nc3c(oc4ccc(F)cc43)c(=O)n2Cc2ccc(CO)cc2)C(C)C)cc1` (stereo not drawn) [Compound 130]: greater than 4.52; `Cc1ccc(C(=O)N(CCCN)C(c2nc3c(oc4ccc(F)cc43)c(=O)n2Cc2ccccc2)C(C)C)cc1` (stereo not drawn) [Compound 63]: greater than 4.52.
`Cc1ccc(C(=O)N(CCCN)C(c2nc3c(oc4ccc(Cl)cc43)c(=O)n2Cc2ccc(C#N)s2)C(C)C)cc1` (stereo not drawn) [Compound 47]: the negative logarithm of the IC50 (pIC50) is greater than 4.52.
Regarding `Cc1ccc(C(=O)N(CCCN)C(c2nc3c(oc4ccc(F)cc43)c(=O)n2Cc2cc(Br)cs2)C(C)C)cc1` (stereo not drawn) [Compound 73], the pIC50 is greater than 4.52.
Turning to `Cc1ccc(C(=O)N(CCCN)C(c2nc3c(oc4ccc(Cl)cc43)c(=O)n2Cc2ccc(Br)s2)C(C)C)cc1` (stereo not drawn) [Compound 41], the negative-log IC50 (pIC50) was greater than 4.52.
`Cc1ccc(C(=O)N(CCCN)[C@@H](c2nc3c(oc4ccccc43)c(=O)n2Cc2ccccc2)C(C)C)cc1` [Compound 175]: the pIC50 is greater than 4.52.
For `CCC(c1nc2c(oc3ccccc32)c(=O)n1Cc1ccccc1)N(CCCCN(C)C)C(=O)c1ccc(Br)cc1` (stereo not drawn) [Compound 24] the value was greater than 4.52; for `CCC(c1nc2c(oc3ccccc32)c(=O)n1Cc1ccccc1)N(CCN(C)C)C(=O)c1ccc(Br)cc1` (stereo not drawn) [Compound 23], greater than 4.52.
Next, `Cc1ccc(C(=O)N(CCN)C(c2nc3c(oc4ccc(Cl)cc43)c(=O)n2Cc2cc(Br)cs2)C(C)C)cc1` (stereo not drawn) [Compound 49]: greater than 4.52; `CC(C)C(c1nc2c(oc3ccc(F)cc32)c(=O)n1Cc1ccccc1)N(CCN)C(=O)c1ccc(Cl)cc1` (stereo not drawn) [Compound 64]: greater than 4.52.
Consider `Cc1ccc(C(=O)N(CCN)C(c2nc3c(oc4ccc(Cl)cc43)c(=O)n2Cc2ccoc2)C(C)C)cc1` (stereo not drawn) [Compound 126], for which the negative-log IC50 (pIC50) was greater than 4.52.
`Cc1ccc(C(=O)N(CCN)C(c2nc3c(oc4cc(Cl)ccc43)c(=O)n2Cc2ccccc2)C(C)C)cc1` (stereo not drawn) [Compound 107]: the pIC50 was greater than 4.52.
For `Cc1ccc(C(=O)N(CCCN)C(c2nc3c(oc4ccc(C)cc43)c(=O)n2Cc2ccccc2)C(C)C)cc1` (stereo not drawn) [Compound 40] the value was greater than 4.52.
For `Cc1ccc(C(=O)N(CCN)C(c2nc3c(oc4ccc(Cl)cc43)c(=O)n2Cc2ccc(Br)o2)C(C)C)cc1` (stereo not drawn) [Compound 103] the value was greater than 4.52; for `Cc1ccc(C(=O)N(CCCN)C(c2nc3c(oc4ccccc43)c(=O)n2Cc2cccs2)C(C)C)cc1` (stereo not drawn) [Compound 15], greater than 4.52.
Regarding `CC(C)[C@H](c1nc2c(oc3ccc(F)cc32)c(=O)n1Cc1ccsc1)N(CCN)C(=O)c1ccc(Br)cc1` [Compound 202], the negative-log IC50 (pIC50) is greater than 4.52.
For `Cc1ccc(C(=O)N(CCN)[C@@H](c2nc3c(oc4ccc(F)cc43)c(=O)n2Cc2ccco2)C(C)C)cc1` [Compound 185] the value was greater than 4.52; for `CC(C)C(c1nc2c(oc3ccc(F)cc32)c(=O)n1Cc1ccc(Cl)s1)N(CCN)C(=O)c1ccc(Cl)cc1` (stereo not drawn) [Compound 68], greater than 4.52.
For `Cc1ccc(CN(CCCN)C(c2nc3cc4ccccc4cc3c(=O)n2Cc2ccccc2)C(C)C)cc1` (stereo not drawn) [Compound 7] the value was greater than 4.52.
With `Cc1ccc(C(=O)N(CCN)C(c2nc3c(oc4ccccc43)c(=O)n2Cc2ccc(Cl)o2)C(C)C)cc1` (stereo not drawn) [Compound 162], the pIC50 is greater than 4.52.
